# Experimental data published in US20230271954A1 (Gossamer Bio Services, Inc., priority 2020, published 2023).
# Experiments:
# DGKα = DGKα (Homo sapiens, UniProt P23743); experiment: DGKα biochemical assay (ADP-Glo); settings: read-out: DGK α IC50
# Procedure, shortened: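 ADP-Glo kinase assay using OAG/PS (1:2) lipid substrate, sonicated, in HEPES pH 7.0 buffer with MgCl2, CaCl2, DTT, BSA, Triton X-100. Enzyme preincubated with compound 30 min at RT; substrate with ATP (DGKα: 400 μM) added, 45 min RT. Luminescence read; % inhibition vs DMSO and no-enzyme controls.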
# DGKζ = biological target: T1, DGKζ (Homo sapiens, UniProt Q13574); experiment: DGKζ biochemical assay (ADP-Glo); settings: read-out: DGK ζ IC50
# T1 construct: purchased Carna 12-110
# T1 sequence (Q13574 1-929 isoform Q13574-4): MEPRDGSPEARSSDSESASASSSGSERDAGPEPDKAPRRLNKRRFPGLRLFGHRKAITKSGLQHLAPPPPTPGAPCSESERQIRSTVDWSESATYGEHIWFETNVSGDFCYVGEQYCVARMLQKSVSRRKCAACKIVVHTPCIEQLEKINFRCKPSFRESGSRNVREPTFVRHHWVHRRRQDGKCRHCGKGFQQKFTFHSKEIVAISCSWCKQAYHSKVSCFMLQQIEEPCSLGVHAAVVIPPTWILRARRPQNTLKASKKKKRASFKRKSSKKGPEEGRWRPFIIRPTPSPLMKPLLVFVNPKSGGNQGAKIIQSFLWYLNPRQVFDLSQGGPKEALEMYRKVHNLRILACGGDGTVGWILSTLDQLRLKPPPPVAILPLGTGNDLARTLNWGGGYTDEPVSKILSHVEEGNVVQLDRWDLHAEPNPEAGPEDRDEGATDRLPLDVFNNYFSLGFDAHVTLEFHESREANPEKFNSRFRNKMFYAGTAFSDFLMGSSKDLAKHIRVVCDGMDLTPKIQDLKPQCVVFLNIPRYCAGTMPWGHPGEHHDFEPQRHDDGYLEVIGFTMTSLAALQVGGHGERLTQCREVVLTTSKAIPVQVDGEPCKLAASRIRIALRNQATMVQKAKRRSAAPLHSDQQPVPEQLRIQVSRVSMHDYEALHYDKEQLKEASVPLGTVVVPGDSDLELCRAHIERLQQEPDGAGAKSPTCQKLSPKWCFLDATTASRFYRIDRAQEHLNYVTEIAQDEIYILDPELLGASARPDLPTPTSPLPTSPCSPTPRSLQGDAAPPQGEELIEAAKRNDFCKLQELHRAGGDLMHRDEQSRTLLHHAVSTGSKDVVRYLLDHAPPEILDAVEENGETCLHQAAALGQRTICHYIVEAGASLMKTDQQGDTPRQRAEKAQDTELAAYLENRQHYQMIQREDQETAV
# DGKα, sequence (P23743 whole entry): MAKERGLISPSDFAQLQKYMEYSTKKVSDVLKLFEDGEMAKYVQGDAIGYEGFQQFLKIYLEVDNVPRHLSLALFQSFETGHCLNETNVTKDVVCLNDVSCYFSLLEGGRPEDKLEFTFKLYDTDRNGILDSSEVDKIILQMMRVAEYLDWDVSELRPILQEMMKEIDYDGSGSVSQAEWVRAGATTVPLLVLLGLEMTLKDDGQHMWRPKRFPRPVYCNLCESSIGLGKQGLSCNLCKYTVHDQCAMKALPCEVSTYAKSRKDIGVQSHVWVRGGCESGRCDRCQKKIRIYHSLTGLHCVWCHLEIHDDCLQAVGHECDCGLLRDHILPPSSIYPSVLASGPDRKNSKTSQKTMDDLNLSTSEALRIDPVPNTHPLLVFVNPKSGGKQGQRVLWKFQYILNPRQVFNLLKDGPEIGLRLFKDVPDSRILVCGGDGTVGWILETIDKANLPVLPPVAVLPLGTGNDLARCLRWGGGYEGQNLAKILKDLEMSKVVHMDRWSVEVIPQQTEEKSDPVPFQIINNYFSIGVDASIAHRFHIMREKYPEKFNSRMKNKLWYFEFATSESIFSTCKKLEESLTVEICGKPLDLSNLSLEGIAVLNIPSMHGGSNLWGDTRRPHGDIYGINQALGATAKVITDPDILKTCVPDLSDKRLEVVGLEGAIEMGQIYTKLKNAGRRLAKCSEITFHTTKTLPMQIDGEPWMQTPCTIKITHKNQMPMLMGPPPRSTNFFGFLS
SMILES,IC50 (DGKα),IC50 (DGKζ)
"Cc1cc(F)ccc1N(CC1CC1)[C@H]1CC[C@H](N(C)c2cc(=O)n(C)c3ccc(C#N)nc23)CC1 [Example 72, trans-8-((4-((cyclopropylmethyl)(4-fluoro-2-methylphenyl)amino)cyclohexyl)(methyl)amino)-5-methyl-6-oxo-5,6-dihydro-1,5-naphthyridine-2-carbonitrile]",≥ 1000 nM,100 to 1000 nM
"Cc1cc(F)ccc1N(CC1CC1)[C@H]1CC[C@H](N(C)c2c(C#N)c(=O)n(C)c3ccc(C#N)nc23)CC1 [Example 73, trans-8-((4-((cyclopropylmethyl)(4-fluoro-2-methylphenyl)amino)cyclohexyl)(methyl)amino)-5-methyl-6-oxo-5,6-dihydro-1,5-naphthyridine-2,7-dicarbonitrile]",10 to 100 nM,10 to 100 nM
Cn1c(=O)cc(N(C)[C@H]2CC[C@@H](N(CC3CC3)c3ccc4c(c3)OCO4)CC2)c2nc(C#N)ccc21 [Example 75],10 to 100 nM,≥ 1000 nM
COc1cc(N(CC2CC2)[C@H]2CC[C@H](N(C)c3c(C#N)c(=O)n(C)c4ccc(C#N)nc34)CC2)cc(F)c1F [Example 77],≥ 1000 nM,100 to 1000 nM
Cn1c(=O)c(C#N)c(N(C)[C@H]2CC[C@H](N(CC3CC3)c3ccc4c(c3)OCO4)CC2)c2nc(C#N)ccc21 [Example 79],≥ 1000 nM,100 to 1000 nM
Cn1c(=O)cc(N(C)[C@H]2CC[C@@H](N(CC3CC3)c3cc(F)cc(F)c3)CC2)c2nc(C#N)ccc21 [Example 82],10 to 100 nM,100 to 1000 nM
COc1cc(N(C2CC2)[C@H]2CC[C@@H](N(C)c3cc(=O)n(C)c4ccc(C#N)nc34)CC2)ccc1F [Example 83],100 to 1000 nM,100 to 1000 nM
Cn1c(=O)cc(N(C)[C@H]2CC[C@@H](N(CC3CC3)c3ccc(F)c(OC(F)F)c3)CC2)c2nc(C#N)ccc21 [Example 84],10 to 100 nM,100 to 1000 nM
COc1cc(N(CC2CC2)[C@H]2CC[C@H](N(C)c3c(C#N)c(=O)n(C)c4ccc(Cl)nc34)CC2)cc(F)c1F [Example 85],< 10 nM,≥ 1000 nM
Cn1c(=O)c(C#N)c(N(C)[C@H]2CC[C@H](N(CC3CC3)c3cc(F)cc(F)c3)CC2)c2nc(C#N)ccc21 [Example 86],100 to 1000 nM,100 to 1000 nM
Cc1cc(F)cc(N(CC2CC2)[C@H]2CC[C@H](N(C)c3c(C#N)c(=O)n(C)c4ccc(C#N)nc34)CC2)c1 [Example 87],100 to 1000 nM,100 to 1000 nM
Cn1c(=O)cc(N(C)[C@H]2CC[C@H](N(CC3CC3)c3ccc4c(c3)OCO4)CC2)c2nc(C#N)ccc21 [Example 88],≥ 1000 nM,≥ 1000 nM
Cc1cc(F)cc(N(CC2CC2)[C@H]2CC[C@H](N(C)c3cc(=O)n(C)c4ccc(C#N)nc34)CC2)c1 [Example 89],≥ 1000 nM,≥ 1000 nM
Cc1cc(N(CC2CCC2)[C@H]2CC[C@@H](N(C)c3c(C#N)c(=O)n(C)c4ccc(C#N)nc34)CC2)ccc1F [Example 91],< 10 nM,10 to 100 nM
Cc1cc(N(CC2CCC2)[C@H]2CC[C@@H](N(C)c3cc(=O)n(C)c4ccc(C#N)nc34)CC2)ccc1F [Example 92],10 to 100 nM,100 to 1000 nM
COc1cc(N(C2CC2)[C@H]2CC[C@H](N(C)c3cc(=O)n(C)c4ccc(C#N)nc34)CC2)ccc1F [Example 93],100 to 1000 nM,≥ 1000 nM
Cc1cc(F)cc(N(CC2CCC2)[C@H]2CC[C@H](N(C)c3c(C#N)c(=O)n(C)c4ccc(C#N)nc34)CC2)c1 [Example 94],100 to 1000 nM,100 to 1000 nM
COc1cc(N(CC2CC2)[C@H]2CC[C@H](N(C)c3cc(=O)n(C)c4ccc(C#N)nc34)CC2)cc(F)c1F [Example 95],≥ 1000 nM,100 to 1000 nM
Cn1c(=O)c(C#N)c(N(C)[C@H]2CC[C@H](N(CC3CC3)c3ccc(F)c(OC(F)F)c3)CC2)c2nc(Cl)ccc21 [Example 96],< 10 nM,≥ 1000 nM
Cc1ccc(N(CC2CCC2)[C@H]2CC[C@@H](N(C)c3cc(=O)n(C)c4ccc(C#N)nc34)CC2)cc1 [Example 100],< 10 nM,≥ 1000 nM
"Cc1cc(F)ccc1N(CC1CCC1)[C@H]1CC[C@H](N(C)c2c(C#N)c(=O)n(C)c3ccc(C#N)nc23)CC1 [Example 106, trans-8-((4-((cyclobutylmethyl)(4-fluoro-2-methylphenyl)amino)cyclohexyl)(methyl)amino)-5-methyl-6-oxo-5,6-dihydro-1,5-naphthyridine-2,7-dicarbonitrile]",100 to 1000 nM,100 to 1000 nM
"Cc1c(F)cccc1N(CC1CC1)[C@H]1CC[C@H](N(C)c2c(C#N)c(=O)n(C)c3ccc(C#N)nc23)CC1 [Example 107, trans-8-((4-((cyclopropylmethyl)(3-fluoro-2-methylphenyl)amino)cyclohexyl)(methyl)amino)-5-methyl-6-oxo-5,6-dihydro-1,5-naphthyridine-2,7-dicarbonitrile]",≥ 1000 nM,100 to 1000 nM
"Cn1c(=O)cc(N(C)[C@H]2CC[C@@H](N(CC3CCC3)c3cccc4c3OCO4)CC2)c2nc(C#N)ccc21 [Example 111, cis-8-((-4-(benzo[d][1,3]dioxol-4-yl(cyclobutylmethyl)amino)cyclohexyl)(methyl)amino)-5-methyl-6-oxo-5,6-dihydro-1,5-naphthyridine-2-carbonitrile]",100 to 1000 nM,100 to 1000 nM
"Cn1c(=O)c(C#N)c(N(C)[C@H]2CC[C@H](N(CC3CCC3)c3cccc4c3OCO4)CC2)c2nc(C#N)ccc21 [Example 112, trans-8-((-4-(benzo[d][1,3]dioxol-4-yl(cyclobutylmethyl)amino)cyclohexyl)(methyl)amino)-5-methyl-6-oxo-5,6-dihydro-1,5-naphthyridine-2,7-dicarbonitrile]",10 to 100 nM,100 to 1000 nM

# Now from value to compound:
IC50 (DGKα),IC50 (DGKζ),SMILES
100 to 1000 nM,100 to 1000 nM,Cn1c(=O)c(C#N)c(N(C)[C@H]2CC[C@H](N(CC3CC3)c3ccc(F)c(OC(F)F)c3)CC2)c2nc(C#N)ccc21 [Example 76]
100 to 1000 nM,10 to 100 nM,Cn1c(=O)c(C#N)c(N(C)[C@H]2CC[C@@H](N(CC3CC3)c3ccc4c(c3)OCO4)CC2)c2nc(Cl)ccc21 [Example 78]
≥ 1000 nM,≥ 1000 nM,Cn1c(=O)cc(N(C)[C@H]2CC[C@H](N(CC3CC3)c3ccc(F)c(OC(F)F)c3)CC2)c2nc(C#N)ccc21 [Example 80]
10 to 100 nM,10 to 100 nM,Cn1c(=O)c(C#N)c(N(C)[C@H]2CC[C@@H](N(CC3CC3)c3cc(F)cc(F)c3)CC2)c2nc(C#N)ccc21 [Example 81]
≥ 1000 nM,≥ 1000 nM,Cn1c(=O)cc(N(C)[C@H]2CC[C@H](N(CC3CC3)c3cc(F)cc(F)c3)CC2)c2nc(C#N)ccc21 [Example 90]
< 10 nM,10 to 100 nM,Cn1c(=O)c(C#N)c(N(C)[C@H]2CC[C@@H](N(CC3CCC3)c3ccc4c(c3)OCO4)CC2)c2nc(C#N)ccc21 [Example 97]
100 to 1000 nM,100 to 1000 nM,COc1cc(N(CC2CC2)[C@H]2CC[C@@H](N(C)c3c(C#N)c(=O)n(C)c4ccc(Cl)nc34)CC2)cc(F)c1F [Example 98]
< 10 nM,10 to 100 nM,Cc1ccc(N(CC2CCC2)[C@H]2CC[C@@H](N(C)c3c(C#N)c(=O)n(C)c4ccc(C#N)nc34)CC2)cc1 [Example 99]
≥ 1000 nM,10 to 100 nM,COc1cc(N(CC2CC2)[C@H]2CC[C@@H](N(C)c3c(C#N)c(=O)n(C)c4ccc(C#N)nc34)CC2)cc(OC)c1F [Example 101]
≥ 1000 nM,≥ 1000 nM,"Cn1c(=O)c(C#N)c(N(C)[C@H]2CC[C@H](N(CC3CC3)c3cccnc3)CC2)c2nc(C#N)ccc21 [Example 103, trans-8-((4-((cyclopropylmethyl)(pyridin-3-yl)amino)cyclohexyl)(methyl)amino)-5-methyl-6-oxo-5,6-dihydro-1,5-naphthyridine-2,7-dicarbonitrile]"
≥ 1000 nM,≥ 1000 nM,"Cc1cc(F)ccc1N(CC1CCC1)[C@H]1CC[C@H](N(C)c2c(C#N)c(=O)n(C)c3ccc(Cl)nc23)CC1 [Example 104, trans-6-chloro-4-((4-((cyclobutylmethyl)(4-fluoro-2-methylphenyl)amino)cyclohexyl)(methyl)amino)-1-methyl-2-oxo-1,2-dihydro-1,5-naphthyridine-3-carbonitrile]"
≥ 1000 nM,100 to 1000 nM,"Cc1c(F)cccc1N(CC1CC1)[C@H]1CC[C@H](N(C)c2c(C#N)c(=O)n(C)c3ccc(Cl)nc23)CC1 [Example 105, trans-6-chloro-4-((4-((cyclopropylmethyl)(3-fluoro-2-methylphenyl)amino)cyclohexyl)(methyl)amino)-1-methyl-2-oxo-1,2-dihydro-1,5-naphthyridine-3-carbonitrile]"
10 to 100 nM,100 to 1000 nM,"COc1cc(F)ccc1N(CC1CC1)[C@H]1CC[C@H](N(C)c2c(C#N)c(=O)n(C)c3ccc(Cl)nc23)CC1 [Example 108, trans-6-chloro-4-((-4-((cyclopropylmethyl)(4-fluoro-2-methoxyphenyl)amino)cyclohexyl)(methyl)amino)-1-methyl-2-oxo-1,2-dihydro-1,5-naphthyridine-3-carbonitrile]"
10 to 100 nM,10 to 100 nM,"Cn1c(=O)c(C#N)c(N(C)[C@H]2CC[C@@H](N(CC3CCC3)c3cccc4c3OCO4)CC2)c2nc(C#N)ccc21 [Example 109, cis-8-((-4-(benzo[d][1,3]dioxol-4-yl(cyclobutylmethyl)amino)cyclohexyl)(methyl)amino)-5-methyl-6-oxo-5,6-dihydro-1,5-naphthyridine-2,7-dicarbonitrile]"
10 to 100 nM,100 to 1000 nM,"Cn1c(=O)c(C#N)c(N(C)[C@H]2CC[C@@H](N(CC3CCC3)c3cccc4c3OCO4)CC2)c2nc(Cl)ccc21 [Example 110, cis-4-((-4-(benzo[d][1,3]dioxol-4-yl(cyclobutylmethyl)amino)cyclohexyl)(methyl)amino)-6-chloro-1-methyl-2-oxo-1,2-dihydro-1,5-naphthyridine-3-carbonitrile]"
